Assays:
binding of tPA and PAI-1 = binding of tPA and PAI-1 (Homo sapiens, UniProt P05121); assay: Inhibition of tPA/PAI-1 complex formation (SDS-PAGE, silver staining, densitometry); conditions: recombinant PAI-1 + IMD-4690 in PBS 37°C 5 min, then tPA 37°C 5 min; tPA/PAI-1 complex band densitometry
Description: Fig 1 Schedule of in vivo experiments and biological activity of IMD-4690. (A) Protocols for the mouse experiments. (B) Inhibitory effects of IMD-4690 on the binding of tPA and PAI-1. The recombinant PAI-1 and IMD-4690 were mixed and incubated in PBS at 37°C for 5 min. Then tPA was added. After incubation at 37°C for 5 min, samples were applied for 10% SDS-PAGE and visualized with a silver staining. The bands of tPA/PAI-1 complex were quantified by a densitometry, and calculated IC50.
A synthetic PAI-1 inhibitor, IMD-4690, 2-[[3-(4-tert-Butylphenoxy)-4'- (trifluoromethoxy) [1,1'-biphenyl]-4-yl]oxy] acetic acid, was molecularly designed, synthesized. IMD-4690 inhibited the binding of tPA and PAI-1 at the IC50 of 8 μM (Fig. 1B).

[1] = test system: chronic allergen exposure model of bronchial asthma in mice; assay: Lung resistance (RL) by restrained whole body plethysmography, chronic Dp asthma model; assay type: in vivo, mouse; conditions: at 25 and 50 mg/mL of Mch, day 70, 10 mg/kg i.p., vs Dp/CMC mice
Description: All mice were sensitized on days 0 and 7 by intraperitoneal injections of 10 μg of Dp dissolved in 500 μL saline and mixed with 1mg of Alum (Sigma-Aldrich Japan). Dp-sensitized mice were challenged intranasally with 10 μg (10 μL) Dp in 70 μL saline on alternate days, 3 days per week, from days 14 to 67. The mice were also treated intraperitoneally with IMD-4690 (10 mg/kg) (Dp/IMD group) or CMC alone (Dp/CMC group) at the same day with Dp challenge. As a control, mice were challenged with saline and given CMC during this period (control/CMC group) (Fig. 1A). Each experiment was performed using six mice per group.
Seventy-two hours after the final challenge (day 70), lung resistance (RL) was measured by restrained whole body plethysmography (Buxco Electronics). Mice were anesthetized by 6 mg/mL 2,2,2-tribromoethanol with 2-methyl-2-butanol. Then mice were tracheostomized and cannulated with a 19-gauge tracheostomy tube, and were placed in the chamber for plethysmography and mechanically ventilated. Aerosolized β-methacholine (Mch) was administered by an in-line aerosol delivery system at different concentrations (6.25, 12.5, 25, and 50 mg/mL). After each Mch challenge, data were continuously collected, and values of RL were taken to express the changes in these functional parameters. The data were expressed as the percentage change from baseline RL obtained after inhalation of saline.

Sequence of binding of tPA and PAI-1 (P05121 24-402): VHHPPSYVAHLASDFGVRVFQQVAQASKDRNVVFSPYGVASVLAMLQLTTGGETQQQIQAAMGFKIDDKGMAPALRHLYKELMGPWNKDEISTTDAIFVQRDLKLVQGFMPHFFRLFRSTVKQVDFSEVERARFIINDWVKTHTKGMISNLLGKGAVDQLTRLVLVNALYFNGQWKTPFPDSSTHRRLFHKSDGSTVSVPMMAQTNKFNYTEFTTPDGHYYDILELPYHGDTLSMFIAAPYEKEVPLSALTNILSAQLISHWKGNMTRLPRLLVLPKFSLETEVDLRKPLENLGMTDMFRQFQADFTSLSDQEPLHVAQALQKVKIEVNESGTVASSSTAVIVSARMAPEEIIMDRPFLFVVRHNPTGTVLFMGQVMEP

IC50 (binding of tPA and PAI-1): 8 µM
Structure (SMILES): CC(C)(C)c1ccc(Oc2cc(-c3ccc(OC(F)(F)F)cc3)ccc2OCC(=O)O)cc1 [IMD-4690, 2-[[3-(4-tert-Butylphenoxy)-4'-(trifluoromethoxy) [1,1'-biphenyl]-4-yl]oxy] acetic acid]
Airway resistance (RL) [1]: significantly reduced

Source: article PMC4364779, “IMD-4690, a Novel Specific Inhibitor for Plasminogen Activator Inhibitor-1, Reduces Allergic Airway Remodeling in a Mouse Model of Chronic Asthma via Regulating Angiogenesis and Remodeling-Related Mediators” (PLoS ONE, 2015)
